Experimental data as given in patent US20240376085A1 (Janssen Pharmaceutica NV, priority 2021, published 2024).

Tests used:
[1] = tested on: IL-17A-induced G-CSF production in human normal keratinocyte (NHK); test: NHK assay: IL-17A-induced G-CSF production in normal human keratinocytes; type: cell-based; details: 24 h, IL-17A 5 ng/mL, average if tested more than once
Description: IL-17A acts directly on keratinocytes through binding to dimeric receptor IL-17RA/RC and drives the production of a number of inflammatory mediators known to be elevated in psoriasis lesional tissue. IL-17A small molecule inhibitors that block the IL-17A to interact with IL-17R would inhibit the IL-17A signaling in its targeted cells such as keratinocytes. The compound functional activity is evaluated for its impact on IL-17A-induced G-CSF production in human normal keratinocyte (NHK).
Adult normal human keratinocytes are cultured in keratinocyte growth medium (Lonza) in a flask till reaching ˜90% confluence, then cells are transferred to a 384-well plate at density of 3000-4000 cell/well. Recombinant human IL-17A (Gibco PHC9174) is pre-incubated with titrated compound or DMSO for 1 h at rt then added to the cell culture plate. The final concentration of IL-17A is 5 ng/mL and DMSO is 0.2%, in the culture containing 5% FBS. Cells are cultured/treated for 24 h at 37° C. Supernatants are collected and G-CSF production is measured through HTRF technology using Human G-CSF Kit (CisBio). G-CSF concentration was extrapolated from the standard curve and IC50 is determined using GraphPad Prism. Cell viability is also evaluated using CellTiter-Glo kit (Promega) and effect of compound on cell viability is compared to DMSO control.

IL-17A : IL-17RA binding = molecular target: T1, IL-17A : IL-17RA binding (Homo sapiens, UniProt Q16552, K93Q); test: IL-17A(FLAG-tagged):IL-17RA(His-tagged) binding disruption Eu-HTRF assay, Protocol 1; details: FLAG-IL-17A 2.5 nM at 2x final concentration; average if tested more than once
T1 construct: Name: IL-17A-Flag
T1 sequence (Q16552 with tags, fused parts or gaps K93Q): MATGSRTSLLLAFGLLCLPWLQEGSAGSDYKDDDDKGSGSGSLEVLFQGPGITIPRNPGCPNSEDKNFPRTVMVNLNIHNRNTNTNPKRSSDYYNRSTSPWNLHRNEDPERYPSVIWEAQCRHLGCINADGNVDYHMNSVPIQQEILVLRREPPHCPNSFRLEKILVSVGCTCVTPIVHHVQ
Description: An antibody directed against the FLAG tag of IL-17A (SEQ ID NO: 1) is labeled with the HTRF donor chromophore (Europium-cryptate). IL-17A is present as a dimer that is “locked into” this quaternary structure due to the formation of loop-spanning […] disulfide bridges. The construct of IL-17RA used in the assay excludes the […] portion of the receptor and is fused to a C-terminal 10×His tag (SEQ ID NO:2). An antibody directed against the His tag of the IL-17RA chimera is labeled with the HTRF acceptor chromophore (“D2”). The fluorescence-resonance energy transfer (FRET) depends on the vicinity of the donor chromophore to the acceptor, and interruption of the binding between the IL-17A and IL-17RA causes the reduction/loss of FRET. Therefore, this assay allows to evaluate the compound effect on the binding IL-17A and IL-17RA by monitoring the fluorescence intensity of donor vs acceptor. The assay was run using either Protocol 1 or Protocol 2 as described below.
Protocol 1. 40 nl of 2-fold serial diluted compound solution for total 22 dilution points is added into each well of a 1536-well, white, low-volume, non-binding plate (Greiner #782904), then 2 μl of FLAG tagged IL-17A at 2× final concentration (2.5 nM) in solution of PBS+0.01% Triton-X100 is added to each well. The assay plate is briefly centrifuged then incubated for 1 h at rt. A mixed solution is prepared containing 2×5 nM 10HIS×IL-17RA, 2×2.5 nM Eu-anti-FLAG (CISBIO), 2×5 nM D2-anti-HIS (CISBIO) in PBS+0.01% Triton-X100+200 mM Potassium Fluoride (Sigma 60238) and 2 μl of mix is added to each well of the assay plate. The plate is briefly centrifuged then incubated for 2 h at rt. The HTRF intensities at the wavelength of donor (620 nm) and acceptor (665 nm) are measured using BMG Pherastar. The ratio between intensities at two wavelengths is calculated and plotted against the compound concentration and the data is fitted to a one-site competition model to yield IC50 of the compound.

Row | Structure (SMILES) | IC50 (IL-17A : IL-17RA binding) | IC50 ([1]; Homo sapiens, Keratinocyte) | IC50 [1]
1 | Cc1c(C(=O)NC(CC(C)(C)C(F)(F)F)c2nc3cc([C@@H](C)NC(=O)CCC(F)(F)F)ccc3[nH]2)cnn1CC(F)(F)F (stereo in doubt) [Example 223, 5-Methyl-N—((S*)-4,4,4-trifluoro-3,3-dimethyl-1-(5-((R)-1-(4,4,4-trifluorobutanamido)ethyl)-1H-benzo[d]imidazol-2-yl)butyl)-1-(2,2,2-trifluoroethyl)-1H-pyrazole-4-carboxamide] | > 100 nM | > 100 nM | –
2 | O=C(N[C@H](c1nc2cc([C@H](NC(=O)C(F)(F)CC3CC3)C3CC3)ccc2[nH]1)C1CCC(F)(F)CC1)c1nonc1C1CC1 [Example 147, 4-Cyclopropyl-N—((S)-(5-((R)-cyclopropyl(3-cyclopropyl-2,2-difluoropropanamido)methyl)-1H-benzo[d]imidazol-2-yl)(4,4-difluorocyclohexyl)methyl)-1,2,5-oxadiazole-3-carboxamide] | 50 to 100 nM | < 50 nM | –
3 | CC(C)CC(NC(=O)CCC(F)(F)F)c1ccc2[nH]c([C@@H](NC(=O)c3ccnn3C)C3CCC(F)(F)CC3)nc2c1 (single isomer, unassigned) [Example 48, N—((S)-(4,4-Difluorocyclohexyl)(5-((S*)-3-methyl-1-(4,4,4-trifluorobutanamido)butyl)-1H-benzo[d]imidazol-2-yl)methyl)-1-methyl-1H-pyrazole-5-carboxamide] | > 100 nM | > 100 nM | –
4 | C[C@@H](NC(=O)CCC(F)(F)F)c1ccc2[nH]c([C@@H](NC(=O)c3cnn(CCC4CC4)n3)C3CCC(F)(F)CC3)nc2c1 [Example 12, 2-(2-Cyclopropylethyl)-N—[(S)-(4,4-difluorocyclohexyl)-[6-[(1R)-1-(4,4,4-trifluorobutanoylamino)ethyl]-1H-benzimidazol-2-yl]methyl]triazole-4-carboxamide] | 50 to 100 nM | > 100 nM | –
5 | C[C@@H](NC(=O)CCC(F)(F)F)c1ccc2[nH]c([C@@H](NC(=O)c3nc(CCC(F)(F)F)cs3)C3CCC(F)(F)CC3)nc2c1 [Example 201, N—((S)-(4,4-Difluorocyclohexyl)(5-((R)-1-(4,4,4-trifluorobutanamido)ethyl)-1H-benzo[d]imidazol-2-yl)methyl)-4-(3,3,3-trifluoropropyl) thiazole-2-carboxamide] | > 100 nM | > 100 nM | –
6 | C[C@@H](NC(=O)CCC(F)(F)F)c1ccc2[nH]c([C@@H](NC(=O)c3ccn4c3CCC4)C3CCC(F)(F)CC3)nc2c1 [Example 210, N—((S)-(4,4-Difluorocyclohexyl)(5-((R)-1-(4,4,4-trifluorobutanamido)ethyl)-1H-benzo[d]imidazol-2-yl)methyl)-2,3-dihydro-1H-pyrrolizine-7-carboxamide] | > 100 nM | > 100 nM | –
7 | Cc1nonc1C(=O)N[C@@H](CO[C@H](C)C(F)(F)F)c1nc2ccc([C@H](NC(=O)CC3CC(F)(F)C3)C3CC3)cc2[nH]1 (relative stereo) [Example 150, N—((R*)-1-(6-((R)-Cyclopropyl(2-(3,3-difluorocyclobutyl)acetamido)methyl)-1H-benzo[d]imidazol-2-yl)-2-(((R*)-1,1,1-trifluoropropan-2-yl)oxy)ethyl)-4-methyl-1,2,5-oxadiazole-3-carboxamide] | > 100 nM | > 100 nM | –
8 | C[C@@H](NC(=O)CCC(F)(F)F)c1ccc2[nH]c([C@@H](NC(=O)c3nnc(CCC(F)(F)F)o3)C3CCC(F)(F)CC3)nc2c1 [Example 187, N—((S)-(4,4-Difluorocyclohexyl)(5-((R)-1-(4,4,4-trifluorobutanamido)ethyl)-1H-benzo[d]imidazol-2-yl)methyl)-5-(3,3,3-trifluoropropyl)-1,3,4-oxadiazole-2-carboxamide] | – | > 100 nM | –

The next lines start with results.

Row | IC50 (IL-17A : IL-17RA binding) | Structure (SMILES) | IC50 ([1]; Homo sapiens, Keratinocyte) | IC50 [1]
9 | < 50 nM | Cc1nonc1C(=O)N[C@H](c1nc2ccc([C@H](NC(=O)CC3CC(F)(F)C3)C3CC3)cc2[nH]1)[C@@H]1CCCC(F)(F)C1 [Example 246, N—((S)-(6-((R)-Cyclopropyl(2-(3,3-difluorocyclobutyl)acetamido)methyl)-1H-benzo[d]imidazol-2-yl)((R)-3,3-difluorocyclohexyl)methyl)-4-methyl-1,2,5-oxadiazole-3-carboxamide] | < 50 nM | –
10 | < 50 nM | CC(C)c1oncc1C(=O)N[C@H](c1nc2cc([C@@H](C)NC(=O)CCC(F)(F)F)ccc2[nH]1)C1CCC(F)(F)CC1 [Example 202, N—((S)-(4,4-Difluorocyclohexyl)(5-((R)-1-(4,4,4-trifluorobutanamido)ethyl)-1H-benzo[d]imidazol-2-yl)methyl)-5-isopropylisoxazole-4-carboxamide] | < 50 nM | –
11 | > 100 nM | C[C@@H](NC(=O)CCC(F)(F)F)c1ccc2[nH]c([C@@H](NC(=O)c3cnn(CC4CC4(F)F)n3)C3CCC(F)(F)CC3)nc2c1 (stereo partly drawn) [Example 81, N—((S)-(4,4-Difluorocyclohexyl)(5-((R)-1-(4,4,4-trifluorobutanamido)ethyl)-1H-benzo[d]imidazol-2-yl)methyl)-2-((2,2-difluorocyclopropyl)methyl)-2H-1,2,3-triazole-4-carboxamide] | > 100 nM | –
12 | 50 to 100 nM | CC(C)c1snnc1C(=O)N[C@H](c1nc2cc([C@@H](C)NC(=O)CCC(F)(F)F)ccc2[nH]1)C1CCC(F)(F)CC1 [Example 206, N—((S)-(4,4-Difluorocyclohexyl)(5-((R)-1-(4,4,4-trifluorobutanamido)ethyl)-1H-benzo[d]imidazol-2-yl)methyl)-5-isopropyl-1,2,3-thiadiazole-4-carboxamide] | < 50 nM | –
13 | > 100 nM | CC(C)n1nccc1C(=O)N[C@H](c1nc2ccc([C@@H](C)NC(=O)CC(C)C(F)(F)F)cc2[nH]1)C1CCC(F)(F)CC1 (single isomer, unassigned) [Example 139, N—((S)-(4,4-Difluorocyclohexyl)(6-((R)-1-((S*)-4,4,4-trifluoro-3-methylbutanamido)ethyl)-1H-benzo[d]imidazol-2-yl)methyl)-1-isopropyl-1H-pyrazole-5-carboxamide] | – | < 50 nM
14 | > 100 nM | C[C@@H](NC(=O)CCC(F)(F)F)c1ccc2[nH]c([C@@H](NC(=O)c3cnn(CC(F)(F)F)n3)C3CCC(F)(F)CC3)nc2c1 [Example 22, N—[(S)-(4,4-Difluorocyclohexyl)-[6-[(1R)-1-(4,4,4-trifluorobutanoylamino)ethyl]-1H-benzimidazol-2-yl]methyl]-2-(2,2,2-trifluoroethyl)triazole-4-carboxamide] | > 100 nM | –
15 | > 100 nM | COCCn1ncc(C(=O)N[C@H](c2nc3cc([C@@H](C)NC(=O)CCC(F)(F)F)ccc3[nH]2)C2CCC(F)(F)CC2)n1 [Example 14, N—[(S)-(4,4-Difluorocyclohexyl)-[6-[(1R)-1-(4,4,4-trifluorobutanoylamino)ethyl]-1H-benzimidazol-2-yl]methyl]-2-(2-methoxyethyl)triazole-4-carboxamide] | > 100 nM | –
16 | > 100 nM | CC(C)C(=O)N[C@H](c1nc2cc([C@@H](C)NC(=O)CCC(F)(F)F)ccc2[nH]1)C1CCC(F)(F)CC1 [Example 115, N—((R)-1-(2-((S)-(4,4-Difluorocyclohexyl)(isobutyramido)methyl)-1H-benzo[d]imidazol-5-yl)ethyl)-4,4,4-trifluorobutanamide] | > 100 nM | –
17 | > 100 nM | C[C@@H](NC(=O)CCC(F)(F)F)c1ccc2[nH]c([C@@H](NC(=O)c3cnnn3CC(F)F)C3CCC(F)(F)CC3)nc2c1 [Example 38, N—[(S)-(4,4-Difluorocyclohexyl)-[6-[(1R)-1-(4,4,4-trifluorobutanoylamino)ethyl]-1H-benzimidazol-2-yl]methyl]-3-(2,2-difluoroethyl)triazole-4-carboxamide] | > 100 nM | –
